Patent US11225503B2, “Crystobactamides” (HELMHOLTZ-ZENTRUM FÜR INFEKTIONSFORSCHUNG GMBH, priority 2013, dated 2022)
Read-outs that look alike come from different tables or passages of the source.

Tests used:
[1] = biological target: T1, E. coli gyrase (Escherichia coli, UniProt P0AES4+P0AES6); test: Gyrase supercoiling (inhibition) assay; assay type: biochemical
T1 construct: purchased Inspiralis (Norwich, UK)
Description: To test the anti-gyrase activity of cystobactamides, commercial E. coli gyrase supercoiling kits (Inspiralis) were used.
For IC50 determination the band intensity of the supercoiled plasmid was determined using Adobe Photoshop, plotted vs. [cystobactamide] and fitted using Hill's equation.
All natural products stock solutions and dilutions were prepared in 100% DMSO and added to the supercoiling reactions giving a final DMSO concentration of 5% (v/v).
(§1) Following natural product concentrations were used in the assay:
Control reactions were: no enzyme and a standard reaction in presence of 5% (v/v) DMSO.
All reaction samples were equilibrated for 10 minutes at room-temperature in the absence of DNA. Then the relaxed plasmid was added to start the reaction.
To determine IC50 values, the formation of supercoiled (gyrase) or relaxed (topoisomerase I, II IV) plasmid was quantified using Adobe Photoshop (Histogram mode). […] All determined IC50 values are the averages of three independent experiments.

[2] = biological target: T2, E. coli topoisomerase IV (Escherichia coli, UniProt P0AFI2+P20083); test: Topoisomerase IV relaxation (inhibition) assay; assay type: biochemical
T2 construct: purchased Inspiralis (Norwich, UK)
T2 sequence (P20083 whole entry): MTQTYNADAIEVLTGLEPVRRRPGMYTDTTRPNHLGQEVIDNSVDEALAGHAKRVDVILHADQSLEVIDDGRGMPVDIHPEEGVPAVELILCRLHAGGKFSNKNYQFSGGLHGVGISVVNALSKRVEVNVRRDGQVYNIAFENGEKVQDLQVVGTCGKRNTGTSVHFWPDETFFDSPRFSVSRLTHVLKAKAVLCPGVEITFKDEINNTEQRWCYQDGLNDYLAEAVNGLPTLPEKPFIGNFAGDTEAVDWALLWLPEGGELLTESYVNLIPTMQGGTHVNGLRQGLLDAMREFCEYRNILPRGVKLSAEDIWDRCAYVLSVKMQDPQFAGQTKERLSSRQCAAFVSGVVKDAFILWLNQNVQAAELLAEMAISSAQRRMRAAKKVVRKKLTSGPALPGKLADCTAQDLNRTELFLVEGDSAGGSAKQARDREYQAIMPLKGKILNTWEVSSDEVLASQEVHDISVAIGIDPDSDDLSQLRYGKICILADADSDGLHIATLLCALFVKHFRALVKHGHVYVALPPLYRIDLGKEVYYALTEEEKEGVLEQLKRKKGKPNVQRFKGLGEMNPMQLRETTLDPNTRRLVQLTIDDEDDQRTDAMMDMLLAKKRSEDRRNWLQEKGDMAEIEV
T2 sequence (P0AFI2 whole entry): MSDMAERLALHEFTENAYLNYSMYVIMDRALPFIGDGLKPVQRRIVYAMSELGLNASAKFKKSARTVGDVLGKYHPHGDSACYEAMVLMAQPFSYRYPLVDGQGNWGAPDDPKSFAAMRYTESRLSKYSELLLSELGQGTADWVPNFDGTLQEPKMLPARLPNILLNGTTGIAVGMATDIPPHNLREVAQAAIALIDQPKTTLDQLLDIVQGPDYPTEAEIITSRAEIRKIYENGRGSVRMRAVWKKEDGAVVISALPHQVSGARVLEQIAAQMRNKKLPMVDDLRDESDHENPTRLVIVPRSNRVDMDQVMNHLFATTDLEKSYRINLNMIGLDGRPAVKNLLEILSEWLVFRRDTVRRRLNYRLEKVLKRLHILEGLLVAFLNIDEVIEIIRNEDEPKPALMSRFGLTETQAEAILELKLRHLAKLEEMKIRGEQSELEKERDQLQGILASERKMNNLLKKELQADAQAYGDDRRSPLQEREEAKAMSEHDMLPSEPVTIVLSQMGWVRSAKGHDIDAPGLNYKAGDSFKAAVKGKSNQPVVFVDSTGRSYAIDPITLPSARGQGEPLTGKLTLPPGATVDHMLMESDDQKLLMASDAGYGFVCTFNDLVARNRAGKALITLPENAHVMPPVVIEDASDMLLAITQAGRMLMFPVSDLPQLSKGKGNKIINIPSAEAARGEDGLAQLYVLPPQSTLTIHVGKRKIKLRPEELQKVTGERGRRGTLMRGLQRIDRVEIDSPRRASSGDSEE
Description: Prokaryotic DNA gyrase and topoisomerase IV share a high degree of homology and gyrase inhibitors typically show a topoisomerase IV inhibitory activity.^8 To test the influence of the cystobactamides on topoisomerase IV a commercial E. coli topoisomerase IV kit (Inspiralis) was used.
The topo IV reactions were titrated with varying concentrations of A-D and resolved by agarose gel electrophoresis. For IC50 determination the band intensity of the supercoiled plasmid was determined using Adobe Photoshop, plotted vs. [cystobactamide] and fitted using Hill's equation.
as §1
(§2) Control reactions were: no enzyme and a standard reaction in presence of 5% (v/v) DMSO. All reaction samples were equilibrated for 10 minutes at room-temperature in the absence of DNA. Then the relaxed plasmid was added to start the reaction.
(§3) To determine IC50 values, the formation of supercoiled (gyrase) or relaxed (topoisomerase I, II IV) plasmid was quantified using Adobe Photoshop (Histogram mode). Plotting of these values versus the compound concentration yielded sigmoidal shaped curves, which were fitted using Hill's equation (Origin Pro 8.5). All determined IC50 values are the averages of three independent experiments.

[3] = biological target: T3, H. sapiens topoisomerase II (Homo sapiens, UniProt P11388); test: Topoisomerase II relaxation (inhibition) assay; assay type: biochemical; details: read-out: IC50, human topo II
T3 construct: purchased Inspiralis (Norwich, UK)
Description: The topo II reactions were titrated with varying concentrations of A-D and resolved by agarose gel electrophoresis. For IC50 determination the band intensity of the supercoiled plasmid was determined using Adobe Photoshop, plotted vs. [cystobactamide] and fitted using Hill's equation.
as §1, §2, §3

[4] = biological target: T4, H. sapiens topoisomerase I (Homo sapiens, UniProt P11387); test: Topoisomerase I relaxation (inhibition) assay; assay type: biochemical
T4 construct: purchased Inspiralis (Norwich, UK)
T4 sequence (P11387 1-765): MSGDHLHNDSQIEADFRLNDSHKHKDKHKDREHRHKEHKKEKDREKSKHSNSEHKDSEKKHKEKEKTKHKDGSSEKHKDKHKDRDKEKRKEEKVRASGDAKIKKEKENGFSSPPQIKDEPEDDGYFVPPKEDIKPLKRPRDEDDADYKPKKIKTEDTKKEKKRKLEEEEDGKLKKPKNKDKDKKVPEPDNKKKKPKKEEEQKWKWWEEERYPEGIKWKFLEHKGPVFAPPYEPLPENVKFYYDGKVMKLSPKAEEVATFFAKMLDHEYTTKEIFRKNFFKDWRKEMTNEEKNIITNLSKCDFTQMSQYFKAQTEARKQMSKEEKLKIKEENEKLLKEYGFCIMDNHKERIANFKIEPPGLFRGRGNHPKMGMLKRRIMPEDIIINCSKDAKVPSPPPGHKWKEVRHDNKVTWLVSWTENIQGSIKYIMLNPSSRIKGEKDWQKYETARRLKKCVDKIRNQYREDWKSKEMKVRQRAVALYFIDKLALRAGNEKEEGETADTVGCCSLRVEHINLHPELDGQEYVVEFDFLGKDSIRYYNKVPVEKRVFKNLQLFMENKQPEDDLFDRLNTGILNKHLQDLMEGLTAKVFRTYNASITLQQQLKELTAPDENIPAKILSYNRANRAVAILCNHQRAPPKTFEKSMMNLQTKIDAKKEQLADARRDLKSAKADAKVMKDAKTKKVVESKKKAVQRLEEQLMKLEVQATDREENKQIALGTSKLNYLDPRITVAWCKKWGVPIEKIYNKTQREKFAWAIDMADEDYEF
Description: Aside the ATP-dependent type IIa topoisomerases like E. coli gyrase, topoIV and human topoII, the activity of cystobactamides on the ATP-independent human topoisomerase I was tested as well.
The topo I reactions were titrated with varying concentrations of A-D and resolved by agarose gel electrophoresis. For IC50 determination the band intensity of the supercoiled plasmid was determined using Adobe Photoshop, plotted vs. [cystobactamide] and fitted using Hill's equation.
as §1
Cystobactamide C: 300 μM; 30 μM; 3 μM
Control reactions were: no enzyme and a standard reaction in presence of 5% (v/v) DMSO. All reaction samples were equilibrated for 10 minutes at room-temperature in the absence of DNA. Then the relaxed plasmid was added to start the reaction
as §3

[5] = biological target: DNA/gyrase complex (Escherichia coli, UniProt P0AES4+P0AES6); details: cystobactamide D 18 μM, ciprofloxacin 1 μM
Sequence of DNA/gyrase complex (P0AES4 whole entry, one chain of several): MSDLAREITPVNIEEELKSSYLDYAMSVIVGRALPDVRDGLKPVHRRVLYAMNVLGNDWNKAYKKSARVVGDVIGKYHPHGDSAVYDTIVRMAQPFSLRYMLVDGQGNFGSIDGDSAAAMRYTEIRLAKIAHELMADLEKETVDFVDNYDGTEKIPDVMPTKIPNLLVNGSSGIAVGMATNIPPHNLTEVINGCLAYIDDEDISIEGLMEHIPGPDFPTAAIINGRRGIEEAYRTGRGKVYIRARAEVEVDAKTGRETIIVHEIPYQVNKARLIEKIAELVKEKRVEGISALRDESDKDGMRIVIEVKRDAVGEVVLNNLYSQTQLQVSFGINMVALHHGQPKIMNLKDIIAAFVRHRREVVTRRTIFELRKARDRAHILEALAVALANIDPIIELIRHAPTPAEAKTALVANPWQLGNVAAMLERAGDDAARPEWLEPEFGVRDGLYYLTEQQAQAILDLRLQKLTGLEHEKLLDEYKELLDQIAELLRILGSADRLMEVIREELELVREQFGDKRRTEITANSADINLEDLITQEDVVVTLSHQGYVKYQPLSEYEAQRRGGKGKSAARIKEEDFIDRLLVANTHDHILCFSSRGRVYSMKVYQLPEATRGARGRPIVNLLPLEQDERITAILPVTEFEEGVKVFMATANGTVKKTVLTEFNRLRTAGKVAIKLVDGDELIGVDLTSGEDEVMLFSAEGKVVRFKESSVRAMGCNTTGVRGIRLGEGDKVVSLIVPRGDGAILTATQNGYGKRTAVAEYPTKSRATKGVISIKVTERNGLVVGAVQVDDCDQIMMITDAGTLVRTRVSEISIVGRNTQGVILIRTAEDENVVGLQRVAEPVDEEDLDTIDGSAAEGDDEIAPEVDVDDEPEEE
Description: (§4) (B) Here, standard gyrase reactions were inhibited using a constant amount of cystobactamide D and titrated with increasing amounts of ATP. If ATP and cystobactamide D would compete for binding at the ATP binding pocket on the gyrase GyrB subunit, increasing amounts of ATP would lead to the formation of supercoiled plasmid in the assay.
To test if cystobactamides stabilize the covalent complex between DNA gyrase and the nicked DNA substrate, proteinase K linearization assay were performed (see a). […] To detect linearized plasmid bands the relaxed plasmid was digested by the single-cutting restriction enzyme Ndel.

[6] = biological target: ATP binding pocket on GyrB of E. coli gyrase (Escherichia coli, UniProt P0AES4+P0AES6); details: constant cystobactamide D; ATP up to 10 mM (2000 fold cystobactamide concentration)
Sequence of ATP binding pocket on GyrB of E. coli gyrase (P0AES4 whole entry, one chain of several): as above
Description: as §4
To test if cystobactamides compete with ATP for binding to the ATP binding pocket on GyrB, standard gyrase supercoiling assays (see a) with varying ATP concentrations were performed. Standard reaction mixes (1 mM ATP) were supplemented with ATP (0.5M ATP stock solution, ATP was purchased from Sigma-Aldrich) to final ATP concentrations of 2.5; 5 and 10 mM. All reactions were performed in triplicates.

T1 sequence (P0AES4 whole entry, one chain of several): as above

## COc1cc(C(=O)O)ccc1NC(=O)c1ccc(NC(=O)c2ccc(NC(=O)C(NC(=O)c3ccc(NC(=O)c4ccc([N+](=O)[O-])cc4)cc3)C(OC)C(N)=O)cc2)c(OC)c1O (stereo not shown) [cystobactamide D]
[1]; E. coli gyrase 20.5 nM eq. 1 unit, read-out: apparent IC50, E. coli gyrase
  IC50: 1 µM
[1]; E. coli gyrase, read-out: IC50 gyrase
  IC50: 0.7 µM
[1]; table, averages of three independent experiments, read-out: IC50 in the Gyrase inhibition assay
  IC50: 0.7 µM
[2]; E. coli topoisomerase IV, read-out: IC50 Topo IV
  IC50: 10 µM
[2]; averages of three independent experiments, read-out: IC50 in the E. coli Topoisomerase IV inhibition assay
  IC50: 10 µM
[2]; topo IV vs. gyrase
  ratios IC50(topo IV)/IC50(gyrase): ~14
[3]
  IC50: 41.2 µM
[4]
  IC50: ~33.6 µM
[5]
  formation of linearized plasmid after proteinase K treatment: formation of linearized plasmid
[6]
  regain of gyrase activity on titration with ATP: the gyrase activity is not regained
